{
  "source": "patent US20040014734A1",
  "about": "“Farnesoid X-activated receptor agonists” (priority 2002, published 2004)",
  "data": [
    {"molecular_target": "T1, FXR (Rattus norvegicus, UniProt Q62735)", "T1 construct": "expressed in transfected cells; host or cells: Human embryonic kidney 293 cells", "T1 sequence (Q62735 whole entry)": "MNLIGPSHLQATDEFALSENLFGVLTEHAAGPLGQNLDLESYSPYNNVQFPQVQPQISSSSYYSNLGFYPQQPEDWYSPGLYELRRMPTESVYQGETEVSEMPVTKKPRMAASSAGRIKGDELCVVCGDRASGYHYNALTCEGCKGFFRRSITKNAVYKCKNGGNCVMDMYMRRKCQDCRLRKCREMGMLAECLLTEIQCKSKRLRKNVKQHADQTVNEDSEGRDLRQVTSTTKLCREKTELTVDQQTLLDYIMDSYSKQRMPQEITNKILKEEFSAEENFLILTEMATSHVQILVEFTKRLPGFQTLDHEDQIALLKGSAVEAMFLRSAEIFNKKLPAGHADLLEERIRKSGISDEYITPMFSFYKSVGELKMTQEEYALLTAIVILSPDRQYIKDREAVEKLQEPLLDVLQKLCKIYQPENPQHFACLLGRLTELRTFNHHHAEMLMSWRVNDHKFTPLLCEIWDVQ", "T1 sequence (P28702 whole entry partner)": "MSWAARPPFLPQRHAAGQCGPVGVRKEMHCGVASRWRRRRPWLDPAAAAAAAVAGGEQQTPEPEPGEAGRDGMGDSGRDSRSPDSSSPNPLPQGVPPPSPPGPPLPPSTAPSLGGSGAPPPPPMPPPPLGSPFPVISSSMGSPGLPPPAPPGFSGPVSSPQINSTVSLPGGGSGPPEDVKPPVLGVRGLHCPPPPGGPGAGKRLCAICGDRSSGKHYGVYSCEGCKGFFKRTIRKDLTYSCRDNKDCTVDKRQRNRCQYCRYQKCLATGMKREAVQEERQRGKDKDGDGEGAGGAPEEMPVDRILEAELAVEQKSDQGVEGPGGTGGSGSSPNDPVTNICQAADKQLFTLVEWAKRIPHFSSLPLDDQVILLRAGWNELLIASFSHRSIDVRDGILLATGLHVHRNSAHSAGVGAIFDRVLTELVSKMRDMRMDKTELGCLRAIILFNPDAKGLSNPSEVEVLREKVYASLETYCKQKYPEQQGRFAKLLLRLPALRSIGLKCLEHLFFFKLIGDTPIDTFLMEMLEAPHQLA", "T1 sequence (Q15596 whole entry partner)": "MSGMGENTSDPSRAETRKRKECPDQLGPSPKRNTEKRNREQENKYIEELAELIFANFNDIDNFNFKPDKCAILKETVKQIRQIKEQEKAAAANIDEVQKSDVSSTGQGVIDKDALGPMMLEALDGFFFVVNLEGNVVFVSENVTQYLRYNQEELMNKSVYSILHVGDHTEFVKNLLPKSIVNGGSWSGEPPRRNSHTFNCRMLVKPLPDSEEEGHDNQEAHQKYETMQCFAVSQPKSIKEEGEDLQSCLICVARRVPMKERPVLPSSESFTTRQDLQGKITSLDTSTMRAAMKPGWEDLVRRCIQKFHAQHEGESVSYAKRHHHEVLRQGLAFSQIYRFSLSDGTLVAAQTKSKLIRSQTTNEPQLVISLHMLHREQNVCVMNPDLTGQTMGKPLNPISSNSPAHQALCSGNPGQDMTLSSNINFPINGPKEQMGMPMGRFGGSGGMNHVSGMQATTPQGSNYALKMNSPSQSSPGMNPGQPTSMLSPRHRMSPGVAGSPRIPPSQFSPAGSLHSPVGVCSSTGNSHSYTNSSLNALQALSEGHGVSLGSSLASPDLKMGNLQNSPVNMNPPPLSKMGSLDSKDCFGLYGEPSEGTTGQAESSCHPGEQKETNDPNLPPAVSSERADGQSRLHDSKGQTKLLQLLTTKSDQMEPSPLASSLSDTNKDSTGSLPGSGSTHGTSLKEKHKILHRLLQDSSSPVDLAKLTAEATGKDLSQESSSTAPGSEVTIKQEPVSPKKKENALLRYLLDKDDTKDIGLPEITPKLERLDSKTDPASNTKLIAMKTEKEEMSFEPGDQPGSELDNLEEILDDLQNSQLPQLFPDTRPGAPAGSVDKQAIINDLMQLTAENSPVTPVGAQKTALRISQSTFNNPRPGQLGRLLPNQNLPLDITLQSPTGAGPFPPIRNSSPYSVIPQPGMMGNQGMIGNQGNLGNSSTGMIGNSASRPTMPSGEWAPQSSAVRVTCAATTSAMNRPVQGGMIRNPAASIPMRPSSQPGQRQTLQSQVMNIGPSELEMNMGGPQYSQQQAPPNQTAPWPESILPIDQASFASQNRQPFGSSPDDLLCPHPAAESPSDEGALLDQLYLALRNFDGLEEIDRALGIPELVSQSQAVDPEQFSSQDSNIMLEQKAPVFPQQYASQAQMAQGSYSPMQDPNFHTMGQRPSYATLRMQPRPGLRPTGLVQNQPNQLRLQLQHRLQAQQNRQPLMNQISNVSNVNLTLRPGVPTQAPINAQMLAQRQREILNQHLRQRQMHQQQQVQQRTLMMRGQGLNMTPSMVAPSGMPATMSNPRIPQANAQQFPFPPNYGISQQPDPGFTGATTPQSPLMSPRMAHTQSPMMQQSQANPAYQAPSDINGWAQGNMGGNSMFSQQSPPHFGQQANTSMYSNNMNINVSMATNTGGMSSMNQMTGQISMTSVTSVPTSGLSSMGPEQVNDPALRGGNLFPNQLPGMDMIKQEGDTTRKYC", "test": "Reporter gene transactivation assay", "format": "cell-based", "settings": "Human embryonic kidney 293 cells transfected with rFXR, hRXRβ, hGrip1 and DR-4 or IR-1 luciferase reporter", "description": "(§1) Human embryonic kidney 293 cells were seeded into 48-well culture plates at 2×10^4 cells per well in a Dulbecco's modified Eagle's medium (DMEM) supplemented with 10% fetal bovine serum. After 24 hours, cells were transfected by a calcium phosphate coprecipitation method with 250 ng of the pGL3/DR-4-luc reporter gene which consists of three copies of AGGTCAagccAGGTCA (DR-4) or pGL3/IR-1-luc which consists of three copies of GGGTCAcTGACCC (IR-1) fused to nucleotides −56 to +109 of the human c-fos promoter in front of the firefly luciferase gene in the plasmid basic pGL3 (Promega, Madison, Wis.), 40 ng pSG5/hRXRβ, 40 ng pR5/rFXR,10 ng pSG5/hGrip1, 0.4 ng CMV/R-luc (transfection normalization reporter, Promega) and 250 ng carrier DNA per well. […] After another 12-24 hours, cells were washed with PBS and refed with DMEM supplemented with 4% delipidated fetal bovine serum. Chemicals dissolved in ethanol were added in duplicate to the medium so that the final concentration of alcohol was 0.2%. After 24-48 hours, cells were harvested and luciferase activity was measured with a commercial kit (Promega Dual luciferase II) on a Monolight luminometer (Becton Dickenson, Mountain View, Calif.). FXR dimerizes with RXR to form an FXR/RXR heterodimer, which binds to both DR-4 response elements and IR-1 response elements in a ligand-dependent manner and transactivates the reporter gene expression.", "values": [
      {"smiles": "C[C@H](CCC(=O)N(C)C)[C@H]1CC[C@H]2[C@@H]3CC[C@@H]4CCCC[C@]4(C)[C@H]3CC[C@]12C", "note": "[N,N-dimethyl-5β-cholanoic acid-24-amide]", "agonists of FXF (reporter gene transactivation, luciferase activity)": "potent agonists"},
      {"smiles": "C[C@H](CCC(=O)NCC(F)(F)F)[C@H]1CC[C@H]2[C@@H]3CC[C@@H]4CCCC[C@]4(C)[C@H]3CC[C@]12C", "note": "[N-(2,2,2-trifluoroethyl)-5β-cholanoic acid-24-amide]", "agonists of FXF (reporter gene transactivation, luciferase activity)": "potent agonists"},
      {"smiles": "C[C@H](CCC(=O)NCCCl)[C@H]1CC[C@H]2[C@@H]3CC[C@@H]4CCCC[C@]4(C)[C@H]3CC[C@]12C", "note": "[N-(2-chloroethyl)-5β-cholanoic acid-24-amide]", "agonists of FXF (reporter gene transactivation, luciferase activity)": "potent agonists"},
      {"smiles": "C[C@H](CCC(=O)NCC(=O)O)[C@H]1CC[C@H]2[C@@H]3CC[C@@H]4CCCC[C@]4(C)[C@H]3CC[C@]12C", "note": "[N-carboxymethyl-5β-cholanoic acid-24-amide]", "agonists of FXF (reporter gene transactivation, luciferase activity)": "potent agonists"},
      {"smiles": "CCOC(=O)CNC(=O)CC[C@@H](C)[C@H]1CC[C@H]2[C@@H]3CC[C@@H]4CCCC[C@]4(C)[C@H]3CC[C@]12C", "note": "[N-ethoxycarbonylmethyl-5β-cholanoic acid-24-amide]", "agonists of FXF (reporter gene transactivation, luciferase activity)": "potent agonists"},
      {"smiles": "C[C@H](CCC(=O)NNC=O)[C@H]1CC[C@H]2[C@@H]3CC[C@@H]4CCCC[C@]4(C)[C@H]3CC[C@]12C", "note": "[N-formylamino-5β-cholanoic acid-24-amide]", "agonists of FXF (reporter gene transactivation, luciferase activity)": "potent agonists"},
      {"smiles": "CNC(=O)CC[C@@H](C)[C@H]1CC[C@H]2[C@@H]3CC[C@@H]4CCCC[C@]4(C)[C@H]3CC[C@]12C", "note": "[N-methyl-5β-cholanoic acid-24-amide]", "agonists of FXF (reporter gene transactivation, luciferase activity)": "potent agonists"},
      {"smiles": "CON(C)C(=O)CC[C@@H](C)[C@H]1CC[C@H]2[C@@H]3CC[C@@H]4CCCC[C@]4(C)[C@H]3CC[C@]12C", "note": "[N-methyl-N-methoxy-5β-cholanoic acid-24-amide]", "agonists of FXF (reporter gene transactivation, luciferase activity)": "potent agonists"},
      {"smiles": "CNN(C)C(=O)CC[C@@H](C)[C@H]1CC[C@H]2[C@@H]3CC[C@@H]4CCCC[C@]4(C)[C@H]3CC[C@]12C", "note": "[N-methyl-N-methylamino-5β-cholanoic acid-24-amide]", "agonists of FXF (reporter gene transactivation, luciferase activity)": "potent agonists"},
      {"smiles": "C[C@H](CCC(=O)NCCS(=O)(=O)O)[C@H]1CC[C@H]2[C@@H]3CC[C@@H]4CCCC[C@]4(C)[C@H]3CC[C@]12C", "note": "[N-sulfonylethyl-5β-cholanoic acid-24-amide]", "agonists of FXF (reporter gene transactivation, luciferase activity)": "potent agonists"},
      {"smiles": "C[C@H](CCC(=O)N(C)CC(=O)O)[C@H]1CC[C@H]2[C@@H]3CC[C@@H]4CCCC[C@]4(C)[C@H]3CC[C@]12C", "note": "[cholamide, N-methyl-N-carboxymethyl-5β-cholanoic acid-24-amide]", "agonists of FXF (reporter gene transactivation, luciferase activity)": "potent agonists"},
      {"smiles": "CC(CCS(=O)(=O)O)C1CCC2C3CCC4CCCCC4(C)C3CCC12C", "note": "(centres unmarked) [cholanosulfonic acid, 3-(10,13-Dimethyl-hexadecahydro-cyclopenta[a]phenanthren-17-yl)-butane-1-sulfonic acid]", "agonists of FXF (reporter gene transactivation, luciferase activity)": "potent agonists"},
      {"smiles": "CC(CCC(=O)O)C1CCC2C3CC=C4C=CCCC4(C)C3CCC12C", "note": "(centres unmarked) [Δ^3,5-cholanoic acid, 4-(10,13-Dimethyl-2,7,8,9,10,11,12,13,14,15,16,17-dodecahydro-1H-cyclopenta[a]phenanthren-17-yl)-pentanoic acid]", "agonists of FXF (reporter gene transactivation, luciferase activity)": "potent agonists"}
    ]},
    {"molecular_target": "T1, FXR", "test": "Reporter gene transactivation assay", "format": "cell-based", "settings": "relative to GW4064", "description": "as §1", "units": {"higher efficacy than GW4064, a known non-steroidal FXR agonist": "times"}, "values": [
      {"smiles": "C[C@H](CCC(=O)N(C)CC(=O)O)[C@H]1CC[C@H]2[C@@H]3CC[C@@H]4CCCC[C@]4(C)[C@H]3CC[C@]12C", "note": "[cholamide, N-methyl-N-carboxymethyl-5β-cholanoic acid-24-amide]", "higher efficacy than GW4064, a known non-steroidal FXR agonist": 200}
    ]}
  ]
}
